What was measured:
Format in all cases: in vivo
Brachiaria decumbens = assay: Greenhouse post-emergence herbicidal activity on Brachiaria decumbens; conditions: 3 DAA, L-glufosinate ammonium 150 g a.i./ha
Description: (§1) The expected efficacy of a combination of L-glufosinate ammonium and the other herbicides was calculated using the well-established Colby method. Any difference between the observed and “expected” efficacy could be attributed to synergy between the two compounds.
(§2) In the Colby method, the expected (or predicted) response of a combination of herbicides is calculated by taking the product of the observed response for each individual component of the combination when applied alone, divided by 100, and subtracting this value from the sum of the observed response for each component when applied alone. An unexpected enhancement in efficacy of the combination is then determined by comparing the observed response of the combination to the expected (or predicted) response as calculated from the observed response of each individual component alone. If the observed response of the combination is greater than the expected (or predicted) response, or stated conversely, if the difference between the observed and expected response is greater than zero, then the combination is said to be synergistic or unexpectedly effective (Colby, S. R., Weeds, 1967 (15), p. 20-22). The Colby method requires only a single dose of each herbicide applied alone and the mixture of both doses. The formula used to calculate the expected efficacy (EE) which was compared with the observed efficacy (OE) to determine the efficacy of the present disclosure is explained hereinbelow:
(§3) Methodology: Greenhouse trials were conducted to evaluate the efficacy of the combination of L-glufosinate ammonium and triketone herbicides—mesotrione and tembotrione—on weeds Amaranthus viridis, Borreria verticillata, Brachiaria decumbens and Eleusine indica.
(§4) The soil used was sandy clay loam—sand: 68.0%; silt: 8.0%; clay: 24.0%.
(§5) All treatments were in 4 replications per treatment with a spray volume of 150 L/ha.
The percentage efficacy was calculated at 14 days after application (DAA). The target weed was Brachiaria decumbens, and the concentration of the herbicide and the results are recorded in Table 1.
The percentage efficacy was calculated at 3 days of application (DAA). The target weed was Brachiaria decumbens and the concentration of the herbicide and the results are recorded in Table 7.

Eleusine indica = assay: Greenhouse post-emergence herbicidal activity on Eleusine indica; conditions: L-glufosinate ammonium 150 g a.i./ha
Description: as §1, §2, §3, §4, §5
The percentage efficacy was calculated at 14 days after application (DAA). The target weed was Eleusine indica, and the concentration of the herbicide and the results are recorded in Table 3.
The percentage efficacy was calculated at 3, 7, 21, 28, 35 days of application (DAA). The target weed was Eleusine indica, and the concentration of the herbicide and the results are recorded in Table 8.

Borreria verticillata = assay: Greenhouse post-emergence herbicidal activity on Borreria verticillata; conditions: L-glufosinate ammonium 150 g a.i./ha
Description: as §1, §2, §3, §4, §5
The percentage efficacy was calculated at 28 and 35 days after application (DAA). The target weed was Borreria verticillata, and the concentration of the herbicide and the results are recorded in Table 2.
The percentage efficacy was calculated at 3 and 7 days of application (DAA). The target weed was Borreria verticillata, and the concentration of the herbicide and the results are recorded in Table 6.

Amaranthus viridis = assay: Greenhouse post-emergence herbicidal activity on Amaranthus viridis; conditions: L-glufosinate ammonium 150 g a.i./ha
Description: as §1, §2, §3, §4, §5
The percentage efficacy was calculated at 3 and 7 days after application (DAA). The target weed was Amaranthus viridis, and the concentration of the herbicide and the results are recorded in Table 4.
The percentage efficacy was calculated at 3 and 7 days of application (DAA). The target weed was Amaranthus viridis, and the concentration of the herbicide and the results are recorded Table 5.

[1] = mesotrione 100 g a.i./ha, Table 1
[2] = tembotrione 53 g a.i./ha, Table 7
[3] = 3 DAA, tembotrione 53 g a.i./ha, Table 8
[4] = 7 DAA, tembotrione 53 g a.i./ha, Table 8
[5] = 14 DAA, mesotrione 100 g a.i./ha, Table 3
[6] = 21 DAA, tembotrione 53 g a.i./ha, Table 8
[7] = 28 DAA, tembotrione 53 g a.i./ha, Table 8
[8] = 35 DAA, tembotrione 53 g a.i./ha, Table 8
[9] = 3 DAA, tembotrione 53 g a.i./ha, Table 6
[10] = 7 DAA, tembotrione 53 g a.i./ha, Table 6
[11] = 28 DAA, mesotrione 100 g a.i./ha, Table 2
[12] = 35 DAA, mesotrione 100 g a.i./ha, Table 2
[13] = 3 DAA, mesotrione 100 g a.i./ha, Table 4
[14] = 3 DAA, tembotrione 53 g a.i./ha, Table 5
[15] = 7 DAA, mesotrione 100 g a.i./ha, Table 4
[16] = 7 DAA, tembotrione 53 g a.i./ha, Table 5

Row | Structure (SMILES) | % Control (Brachiaria decumbens; [1]) [%] | % Control (Brachiaria decumbens; [2]) [%] | % Control (Eleusine indica; [3]) [%] | % Control (Eleusine indica; [4]) [%] | % Control (Eleusine indica; [5]) [%] | % Control (Eleusine indica; [6]) [%] | % Control (Eleusine indica; [7]) [%] | % Control (Eleusine indica; [8]) [%] | % Control (Borreria verticillata; [9]) [%] | % Control (Borreria verticillata; [10]) [%] | % Control (Borreria verticillata; [11]) [%] | % Control (Borreria verticillata; [12]) [%] | % Control (Amaranthus viridis; [13]) [%] | % Control (Amaranthus viridis; [14]) [%] | % Control (Amaranthus viridis; [15]) [%] | % Control (Amaranthus viridis; [16]) [%]
1 | CP(=O)(O)CC[C@H](N)C(=O)O.N [L-glufosinate ammonium, ammonium (2S)-2-amino-4-(methylphosphinato) butyric acid] | 40 | 40 | 40 | 50 | 30 | 50 | 30 | 40 | 55 | 80 | 90 | 85 | 40 | 50 | 80 | 80
2 | CS(=O)(=O)c1ccc(C(=O)C2C(=O)CCCC2=O)c([N+](=O)[O-])c1 [Mesotrione, mesotrione] | 10 |  |  |  | 20 |  |  |  |  |  | 75 | 75 | 10 |  | 30 | 
3 | CS(=O)(=O)c1ccc(C(=O)C2C(=O)CCCC2=O)c(Cl)c1COCC(F)(F)F [Tembotrione, tembotrione] |  | 8 | 5 | 15 |  | 28 | 35 | 20 | 10 | 30 |  |  |  | 10 |  | 30

From patent publication US20260223854A1, “AN HERBICIDAL COMBINATION, COMPOSITION AND METHOD OF CONTROLLING WEEDS USING THE SAME” (priority 2023, published 2026)
